Numbered stars: 1 amine (or outer) side, 2 acyl side, 3 side chain; on linkers, the order of the positions; unused ones are H or OH. Square brackets hold non-standard residues; d marks the D form. Peptide text beside a SMILES is read from it. * marks the point of attachment. X1 = C[C@H]1C[C@@H](c2nc(C(=O)[*:2])cs2)N([*:1])C1; Pyrrolidine(2S-propanoyl) = CCC(=O)[C@@H]1CCCN1*; dNMeTyr(3-Br) = CN[C@H](Cc1ccc(O)c(Br)c1)C(=O)O; NMeF = CN[C@@H](Cc1ccccc1)C(=O)O; Piv = CC(C)(C)C(=O)*
Legend:
[1] = system: panel of 39 human cancer cell lines; set-up: method as in PMID 19803465; conditions: cited from earlier work
[2] = system: ERK and Akt; set-up: method as in PMID 24133625; conditions: two renal cancer cell lines; cited from earlier work
[3] = system: actin‐filament; set-up: method as in PMID 21322638; conditions: cited from earlier work
[4] = system: ERK; set-up: method as in PMID 19803465; conditions: NRK cells; cited from earlier work
[5] = system: HeLa S3 cells; set-up: method as in PMID 19803465; conditions: cited from earlier work
[6] = system: protein kinase C (PKC); assay: Reverse phase protein array (RPPA) profiling, PKC signalling; assay type: cell-based, human; conditions: HCT116 cell lysates, 3.0–0.03 μM, 24 h exposure, normalised to DMSO
Source text: (§1) The only clearly discernible inhibition of pathway signalling was for protein kinase C (PKC); there was discernible reduction in total protein expression of the insulin receptor substrate protein IRS‐1 (Figure S2).
(§2) Reverse phase protein array methods: The abundance of total protein and phosphorylated protein epitopes was quantified by using a Zeptosens reverse phase protein microarray platform (Bayer Technology Services, Leverkusen, Germany) as previously described.30 Briefly, HCT116 cells were seeded (4×10^5 cells per well) in six‐well plates. Cells were pre‐incubated in treatment‐free medium for 48 h prior to addition of Bis1–3 at six‐point half‐log doses (3.0–0.03 μM) and incubation for 30 min, 3 h and 24 h. Control samples were treated with medium containing DMSO (0.1 % v/v). The medium was then removed, and the cells were lysed by incubation with CLB1 buffer (Zeptosens) for 30 min. Cell lysates were normalised to a uniform protein concentration with CSBL1 spotting buffer (Zeptosens) prior to preparing a final fourfold concentration series of ([…] mL^−1). The concentration series of each sample was printed onto ZeptoChip protein microarray chips (Zeptosens) under controlled conditions (50 % humidity, 14 °C) by using a Nano‐Plotter NP21/E non‐contact printer (GeSIM, Radeberg, Germany). Single droplets (400 pL) were deposited onto the chips. A reference grid (four columns, 22 rows) of Alexa Fluor 647‐conjugated BSA (Invitrogen) was spotted onto each sub‐array; samples were spotted between reference columns. […] Microarray images representing the longest exposure without saturation of the fluorescence signal were automatically selected for analysis in ZeptoView 3.1 software. A weighted linear‐fit through the fourfold concentration series was used to calculate relative fluorescence intensity (RFI). […]
(§3) Figure S2. […] The mechanism-of-action of Tz-BBA analogues Bis1-3 at the post translational pathway level was evaluated against a panel of 62 protein and phospho-protein analytes by reverse phase protein array (RPPA). […]

[7] = system: IRS‐1; assay: Reverse phase protein array (RPPA) profiling, IRS-1 total protein expression; assay type: cell-based, human; conditions: HCT116 cell lysates, 3.0–0.03 μM, 24 h exposure, normalised to DMSO
Source text: as §1, §2, §3

[8] = system: HCT116 cells; assay: IncuCyte ZOOM kinetic cell growth (confluence) assay; assay type: cell-based, human; conditions: half-log dose response, kinetic readout every 3 h
Procedure: (§4) The effects of Bis1–6 on the growth of HCT116 cells (human colon cancer cell‐line) were assessed on an IncuCyte Zoom platform. HCT116 cells express an activating Ras mutation, and represent an aggressive and common form of human colon cancer.26 Dasatinib (dual Src‐Abl tyrosine kinase inhibitor) and DMSO (vehicle, 0.1 % v/v) were used as controls. […] The relative activity of all the analogues was further evaluated by testing each in an eight‐point half‐log dose–response assay (alamarBlue cell viability assay).
(§5) High‐content imaging methods: Kinetic cell growth and apoptosis assays were performed with an IncuCyte ZOOM live‐cell imaging system (Essen Bioscience, Ann Arbor, MI). Cytoskeletal morphology assays were performed on an ImageXpress Micro High‐Content Analysis System (Molecular Devices, Sunnyvale, CA).
Apoptosis assay: Cells were seeded in a 96‐well plate (5000 cells per well) and incubated for 24 h before treatment. […] Apoptosis was detected with the cell‐permeable caspase biosensor NucView 488 (Biotium, Hayward, CA), which was added (1 μM) at the same time as compound. IncuCyte imaging software automatically quantifies cell density and NucView/Caspase positive objects at time points following compound addition. This provided a kinetic readout of cell growth and apoptosis induction in cells after addition of each analogue. […]

[9] = system: HCT116 cells; assay: Cytoskeletal morphology assay (ImageXpress high-content imaging, F-actin/DAPI); assay type: cell-based, human; conditions: 1 μM, 48 h, F-actin (phalloidin) and DAPI staining
Source text: Perhaps most striking in terms of identifying a mechanism for the cytotoxicity were the morphological images collected on an ImageXpress high content microscope (Figure 2). […] The morphological changes induced by Bis1 and Bis2 are in good accord with those previously reported for the parent compound (BBA) in HeLa cells,8 and indicate that the switch from thiazoline to thiazole to facilitate the generation of these Tz‐BBA analogues by SPPS has not impaired activity.
Figure 2 HCT116 cytoskeletal morphology after treatment with 1 μM Bis1–6 for 48 h. Cells were permeabilised and fixed in paraformaldehyde prior to staining nuclei (DAPI, blue) and filamentous‐actin fibres (F‐actin; phalloidin conjugated to Alexa Fluor […], green). Images were acquired in an automated ImageXpress microXL high‐content imaging platform (Molecular Devices) with a 20× objective; images show HCT116 cell morphology for DMSO (control) and each treatment group: A) DMSO; B) cytochalasin D; C) Bis1; D) Bis2; E) Bis3 (representative also for Bis4); F) Bis 6 (representative also for Bis5).
as §5
Cytoskeletal morphology assays: Cells were seeded in a 96‐well plates (5000 cells per well) and incubated for 24 h before treatment. The medium was then replaced with fresh medium containing Bis1–6 as eight‐point half‐log doses and incubated for 48 h. Control cells were incubated with DMSO (0.1 % v/v). All images were acquired on an automated ImageXpress Micro XL high‐content imaging platform (Molecular Devices) with a ×20 Plan Fluor ELWD Ph1 DM objective (Nikon) and a 16‐bit camera (binning resolution of 1). Four separate images per well were acquired by using laser‐based autofocus parameters optimised for cell plates and cell type. All immunostaining procedures were performed at room temperature in 96‐well plates (100 μL unless otherwise stated). Cells were fixed by addition of paraformaldehyde (8 % in PBS; final concentration 4 %) and incubated for 20 min. Cells were washed three times with PBS then incubated with a mixture of phalloidin conjugated to Alexa Fluor […] (Molecular Probes (Thermo Fisher) A12379; diluted 1:500) and 4′,6‐diamidino‐2‐phenylindole (DAPI; Sigma–Aldrich D8417) for 45 min in the absence of light. Cells were washed three times with PBS before imaging. Representative images are in Figure 2.

[10] = system: HCT116 cells; assay: alamarBlue cell viability assay; assay type: cell-based, human; conditions: 72 h incubation, eight-point half-log doses 0.003–10 μM, alamarBlue fluorescence, relative to DMSO control, n=3
Procedure: as §4
Figure 1 HCT116 cell viability. Dose–response curves determined by an alamarBlue cell viability assay after incubation with Bis1–6 (0.003–10 μM) for 72 h. Conversion of the alamarBlue reagent to the activated fluorescent resorufin cell viability indicator was calculated for DMSO (vehicle) and compound‐treated samples. Viability is expressed relative to control (DMSO). Dose–response plots are mean±SD (n=3).
Cell viability assay: HCT116 cells were seeded in a 96‐well plate (5000 cells per well) and incubated for 48 h before treatment. The medium (DMEM with 10 % foetal calf serum and 2 mM glutamine) was replaced with fresh medium containing each of Bis1–6 as eight‐point half‐log doses, and incubated for 3 days. alamarBlue (Invitrogen) cell viability reagent (10 % v/v) was added, and the plate was incubated for 1 h. Fluorescence was detected with an EnVision multilabel reader (λ ex=540 nm, λ em=590 nm; PerkinElmer). All data were normalised to DMSO‐treated cells, and curves were fitted in GraphPad Prism with a sigmoidal variable‐slope curve.

In the case of bisebromoamide [BBA], the GI50 [1] is given as 40 nM, the “phosphorylation of both ERK and Akt” value [2] is given as “inhibited” and the “action on actin filaments” value [3] is given as “actin‐filament stabiliser”. For the same compound, the “phosphorylation of ERK” value [4] was “inhibited” and the “IC50 against HeLa S3 cells” value [5] was 0.04 µg/mL.

For `CCC(=O)[C@@H]1CCCN1C(=O)[C@H](Cc1ccccc1)N(C)C(=O)[C@@H](CC(C)C)NC(=O)c1csc([C@@H]2C[C@H](C)CN2C(=O)[C@@H](Cc2ccc(O)c(Br)c2)N(C)C(=O)[C@H](C)NC(=O)C(C)(C)C)n1` [Bis1, thiazole‐bisebromoamide] (Piv-A[dNMeTyr(3-Br)][X1][dL][NMeF]-{Pyrrolidine(2S-propanoyl)}), the “PKC pathway signalling (RPPA)” value [6] was “reduced activity of PKC”, the “total protein expression of IRS-1 (RPPA)” value [7] was “reduced expression of IRS‐1” and the “repression of cell growth (confluence)” value [8] was “most active”. For the same compound, the “cytoskeletal morphological changes relative to DMSO control” value [9] was “clear disruption and aggregation of F‐actin filaments together with reduced cell‐substrate adhesion”.

For `CCC(=O)[C@@H]1CCCN1C(=O)[C@H](Cc1ccccc1)N(C)C(=O)[C@H](C)NC(=O)c1csc([C@@H]2C[C@H](C)CN2C(=O)[C@@H](Cc2ccc(O)c(Br)c2)N(C)C(=O)[C@H](C)NC(=O)C(C)(C)C)n1` [Bis4] (Piv-A[dNMeTyr(3-Br)][X1]A[NMeF]-{Pyrrolidine(2S-propanoyl)}), the “cytoskeletal morphological changes relative to DMSO control” value [9] was “more elongated cells with prominent F‐actin filaments and promotion of cell‐substrate adhesion” and the EC50 [10] was 178 nM.

For `CC(C)C[C@@H](NC(=O)c1csc([C@@H]2C[C@H](C)CN2C(=O)[C@@H](Cc2ccc(O)c(Br)c2)N(C)C(=O)[C@H](C)NC(=O)C(C)(C)C)n1)C(=O)N(C)[C@@H](Cc1ccccc1)C(=O)N[C@@H](C)C(N)=O` [Bis2] (Piv-A[dNMeTyr(3-Br)][X1][dL][NMeF]A-NH2), the “PKC pathway signalling (RPPA)” value [6] was “reduced activity of PKC”, the “total protein expression of IRS-1 (RPPA)” value [7] was “reduced expression of IRS‐1” and the “cytoskeletal morphological changes relative to DMSO control” value [9] was “clear disruption and aggregation of F‐actin filaments together with reduced cell‐substrate adhesion”. The EC50 [10] was 71 nM.

With `CCC(=O)[C@@H]1CCCN1C(=O)[C@H](C)NC(=O)[C@@H](CC(C)C)NC(=O)c1csc([C@@H]2C[C@H](C)CN2C(=O)[C@@H](Cc2ccc(O)c(Br)c2)N(C)C(=O)[C@H](C)NC(=O)C(C)(C)C)n1` [Bis3] (Piv-A[dNMeTyr(3-Br)][X1][dL]A-{Pyrrolidine(2S-propanoyl)}) the “PKC pathway signalling (RPPA)” value [6] was “more affected by Bis1 and Bis2 than by Bis3”, the “total protein expression of IRS-1 (RPPA)” value [7] was “more affected by Bis1 and Bis2 than by Bis3” and the “cytoskeletal morphological changes relative to DMSO control” value [9] was “more elongated cells with prominent F‐actin filaments and promotion of cell‐substrate adhesion”. It also gave an EC50 [10] of 483 nM.

Reference: paper PMC5096027, “Naturally Inspired Peptide Leads: Alanine Scanning Reveals an Actin‐Targeting Thiazole Analogue of Bisebromoamide” (Chembiochem, 2016)
